How the values were obtained:
[1] = system: clusters of malignant cells and/or stromal cell clusters of malignant lung tumors (fractionated and unfractionated digestion products); assay: chemosensitivity to cisplatin, colony formation on ECM-coated culture plates; format: cell-based; details: 6000 nM cisplatin, 3 days incubation, most of the fractionated and unfractionated digestion products
Protocol: (§1) Samples were freshly resected from malignant lung tumors of various histologies, then purified and minced. Tumor tissue samples of 5 to 10 mg per 1 mL were suspended in RPMI 1640 culture medium with an FBS content of 10%. These suspensions were subjected to a collagenase digestion, preferably using Clostridium histolyticum collagenase (230 CDU/mL) for a period of 4 to 5 hours at 36° C. to 37° C., preferably at 36.5° C. Next the digested product was centrifuged at 50×g, the supernatant was discarded and the pellet was dissolved and resuspended in 1 mL fresh culture medium. Each test preparation was transferred to a Petri dish and adjusted with culture medium to a concentration corresponding to 5 to 10 mg tumor sample wet weight per 1 mL culture medium.
(§2) The cell suspension of each test preparation (test run) was picked up with a 1 mL pipette tip (another aspiration device can also be used) and then discharged again, 4 to 5 times in succession, and thereby subjected to a treatment with hydrodynamic shearing forces. Next, with the help of an inverse microscope equipped with a phase contrast lens system, cell clusters of phenotypically the same cells were detected and each was transferred to a separate culture vessel using injection cannulas no. 23 (diameter 0.6 mm, length 60-80 mm) attached to 2 mL injection syringes. […]

[2] = system: isolated stromal cell clusters of malignant lung tumors; assay: chemosensitivity to cisplatin, isolated stromal cell clusters; format: cell-based; details: isolated microscopically identified stromal cell clusters, in the absence of malignant cells; 3 days, 0-6000 nM cisplatin
Protocol: as §1, §2

## N.N.[Cl][Pt][Cl] [cisplatin]
[1]
  colony formation ex vivo in the presence of cisplatin: capable of forming colonies ex vivo even in the presence of 6000 nM cisplatin
[2]
  cisplatin resistance of stromal cell clusters: often have cisplatin resistance even in the absence of malignant cells
